Measured values taken from patent US20190367516A1 (Bayer Pharma Aktiengesellschaft, priority 2015, published 2019).

Molecular target: T1, human M2 receptor (Homo sapiens, UniProt P08172)
T1 sequence (P08172 1-466): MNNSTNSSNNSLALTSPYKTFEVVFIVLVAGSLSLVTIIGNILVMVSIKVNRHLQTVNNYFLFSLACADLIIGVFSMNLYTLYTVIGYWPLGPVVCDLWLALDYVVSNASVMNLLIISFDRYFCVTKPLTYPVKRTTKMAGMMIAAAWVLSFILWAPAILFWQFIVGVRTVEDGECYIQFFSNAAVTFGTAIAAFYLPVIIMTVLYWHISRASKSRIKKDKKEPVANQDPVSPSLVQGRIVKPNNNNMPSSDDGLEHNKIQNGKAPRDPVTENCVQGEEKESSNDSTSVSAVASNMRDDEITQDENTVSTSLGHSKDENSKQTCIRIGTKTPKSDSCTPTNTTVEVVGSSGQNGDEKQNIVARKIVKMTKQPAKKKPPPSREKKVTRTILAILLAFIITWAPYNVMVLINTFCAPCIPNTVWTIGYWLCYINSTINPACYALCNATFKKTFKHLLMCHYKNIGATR
Details: M2-GIRK1/4 reporter cells; for EC50: Receptor activity EC50, allosteric potency at EC20 acetylcholine, in some cases mean of two or more determinations; for Emax: read-out: Efficiency, boosting of the acetylcholine effect at EC20 acetylcholine concentration; for Efficiency: boosting of the acetylcholine effect at EC20 acetylcholine concentration

EC50	Emax	Efficiency	Structure (SMILES)
0.023 µM		98.5%	O=C(NC(CC(F)(F)F)C1CC1)c1cn(-c2c(F)cc(F)cc2F)c2nc(N3C[C@@H](O)[C@H](O)C3)ccc2c1=O (single isomer, unassigned) [Example 440]
0.01 µM	100%		CC(NC(=O)c1cn(-c2c(F)cc(F)cc2F)c2nc(N3C[C@@H](O)[C@H](O)C3)ccc2c1=O)(C1CC1)C(F)(F)F (single isomer, unassigned) [Example 442]
0.004 µM	95%		CC(NC(=O)c1cn(-c2c(F)cc(F)cc2F)c2nc(N3C[C@@H](C)NC3=O)ccc2c1=O)C(F)(F)C(F)(F)F (single isomer, unassigned) [Example 459]
0.128 µM	82.5%		O=C(N[C@@H](C1CC1)C(F)(F)F)c1cn(-c2c(F)cc(F)cc2F)c2nc(N3CCOC(CO)C3)ccc2c1=O (single isomer, unassigned) [Example 464, N-[(1 S)-1-Cyclopropyl-2,2,2-trifluoroethyl]-7-[2-(hydroxymethyl)morpholin-4-yl]-4-oxo-1-(2,4,6-trifluorophenyl)-1,4-dihydro-1,8-naphthyridine-3-carboxamide]
0.076 µM		89.0%	O=C(N[C@@H](C1CC1)C(F)(F)F)c1cn(-c2c(F)cc(F)cc2F)c2nc(N3CCOC(CO)C3)ccc2c1=O (single isomer, unassigned) [Example 465, N-[(1 S)-1-Cyclopropyl-2,2,2-trifluoroethyl]-7-[2-(hydroxymethyl)morpholin-4-yl]-4-oxo-1-(2,4,6-trifluorophenyl)-1,4-dihydro-1,8-naphthyridine-3-carboxamide]
0.004 µM		100.0%	CCC(NC(=O)c1cn(-c2c(F)cc(F)cc2F)c2nc(N3C[C@@H](O)CC3=O)ccc2c1=O)C(C)C (single isomer, unassigned) [Example 486]
0.01 µM	91%		O=C(NC(CC(F)(F)F)C1CC1)c1cn(-c2c(F)cc(F)cc2F)c2nc(N3C[C@@H](O)CC3=O)ccc2c1=O (single isomer, unassigned) [Example 513]
0.024 µM	100%		O=C(NC(c1ccccc1Cl)C(F)(F)F)c1cn(-c2c(F)cc(F)cc2F)c2nc(N3C[C@@H](O)CC3=O)ccc2c1=O (single isomer, unassigned) [Example 533]
0.006 µM		100.0%	O=C(NC(c1ccccc1Cl)C(F)(F)F)c1cn(-c2c(F)cc(F)cc2F)c2nc(N3C[C@@H](O)CC3=O)ccc2c1=O (single isomer, unassigned) [Example 534]
0.12 µM	90%		O=C(N[C@@H](C1CC1)C(F)(F)F)c1cn(-c2c(F)cc(F)cc2Cl)c2nc(N3C[C@@H](O)[C@H](O)C3)ccc2c1=O (single isomer, unassigned) [Example 547]
0.01 µM			O=C(NC(c1ccccc1Cl)C(F)(F)F)c1cn(-c2c(F)cc(F)cc2F)c2nc(N3CCNC3=O)ccc2c1=O (single isomer, unassigned) [Example 565, N-[1-(2-Chlorophenyl)-2,2,2-trifluoroethyl]-4-oxo-7-(2-oxoimidazolidin-1-yl)-1-(2,4,6-trifluorophenyl)-1,4-dihydro-1,8-naphthyridine-3-carboxamide]
0.011 µM		100.0%	CC[C@H](NC(=O)c1cn(-c2c(F)cc(F)cc2Cl)c2nc(N3C[C@@H](O)[C@H](O)C3)ccc2c1=O)C(F)(F)F (single isomer, unassigned) [Example 568]
0.056 µM	100%		CC(C)(CC(F)(F)F)NC(=O)c1cn(-c2c(F)cc(F)cc2F)c2nc(N3CC(O)C4(CC4)C3)ccc2c1=O (single isomer, unassigned) [Example 570, 7-[7-Hydroxy-5-azaspiro[2.4]hept-5-yl]-4-oxo-N-(4,4,4-trifluoro-2-methylbutan-2-yl)-1-(2,4,6-trifluorophenyl)-1,4-dihydro-1,8-naphthyridine-3-carboxamide]
0.012 µM			CC(C)(CC(F)(F)F)NC(=O)c1cn(-c2c(F)cc(F)cc2F)c2nc(N3CC(O)C4(CC4)C3)ccc2c1=O (single isomer, unassigned) [Example 571, 7-[7-Hydroxy-5-azaspiro[2.4]hept-5-yl]-4-oxo-N-(4,4,4-trifluoro-2-methylbutan-2-yl)-1-(2,4,6-trifluorophenyl)-1,4-dihydro-1,8-naphthyridine-3-carboxamide]
0.02 µM	100%		CCC(COC(F)(F)F)NC(=O)c1cn(-c2c(F)cc(F)cc2F)c2nc(N3C[C@@H](O)[C@H](O)C3)ccc2c1=O (single isomer, unassigned) [Example 577]

More lines, now with the values behind:

Structure (SMILES)	EC50	Emax	Efficiency
CC[C@@H](NC(=O)c1cn(-c2ccc(F)cc2F)c2nc(N3C(=O)CCC3C)ccc2c1=O)C(F)(F)F (single isomer, unassigned) [Example 427]	0.019 µM	91.5%	
CC[C@@H](NC(=O)c1cn(-c2ccc(F)cc2F)c2nc(N3C(=O)CCC3C)ccc2c1=O)C(F)(F)F (single isomer, unassigned) [Example 428]	0.072 µM		86.0%
CC[C@@H](NC(=O)c1cn(-c2ccc(F)cc2F)c2nc(N3CC(C)NC3=O)ccc2c1=O)C(F)(F)F (single isomer, unassigned) [Example 433]	0.17 µM		100.0%
CCC1CCN(c2ccc3c(=O)c(C(=O)N[C@@H](C4CC4)C(F)(F)F)cn(-c4c(F)cc(F)cc4F)c3n2)C(=O)N1 (single isomer, unassigned) [Example 447, N-[(1 S)-1-Cyclopropyl-2,2,2-trifluoroethyl]-7-[4-ethyl-2-oxotetrahydropyrimidin-1(2H)-yl]-4-oxo-1-(2,4,6-trifluorophenyl)-1,4-dihydro-1,8-naphthyridine-3-carboxamide]	0.024 µM	93%	
CC(NC(=O)c1cn(-c2c(F)cc(F)cc2F)c2nc(N3C[C@@H](C)NC3=O)ccc2c1=O)C(F)(F)C(F)(F)F (single isomer, unassigned) [Example 460]	0.005 µM		98.0%
CCC(NC(=O)c1cn(-c2c(F)cc(F)cc2F)c2nc(N3C[C@@H](O)CC3=O)ccc2c1=O)C(C)C (single isomer, unassigned) [Example 485]	0.006 µM	100%	
CC(NC(=O)c1cn(-c2c(F)cc(F)cc2F)c2nc(N3C[C@@H](O)CC3=O)ccc2c1=O)(C1CC1)C(F)(F)F (single isomer, unassigned) [Example 509]	0.007 µM	88%	
CC(NC(=O)c1cn(-c2c(F)cc(F)cc2F)c2nc(N3C[C@@H](O)CC3=O)ccc2c1=O)C(F)(F)C(F)(F)F (single isomer, unassigned) [Example 531]	0.009 µM		97.0%
CCC(NC(=O)c1cn(-c2ccc(F)cc2F)c2nc(N3C[C@@H](O)CC3=O)ccc2c1=O)C(F)(F)C(F)(F)F (single isomer, unassigned) [Example 558]	0.022 µM		100.0%
O=C(NC(c1ccccc1Cl)C(F)(F)F)c1cn(-c2c(F)cc(F)cc2F)c2nc(N3CCNC3=O)ccc2c1=O (single isomer, unassigned) [Example 564, N-[1-(2-Chlorophenyl)-2,2,2-trifluoroethyl]-4-oxo-7-(2-oxoimidazolidin-1-yl)-1-(2,4,6-trifluorophenyl)-1,4-dihydro-1,8-naphthyridine-3-carboxamide]	0.042 µM	89%	
CC[C@H](NC(=O)c1cn(-c2c(F)cc(F)cc2Cl)c2nc(N3C[C@@H](O)[C@H](O)C3)ccc2c1=O)C(F)(F)F (single isomer, unassigned) [Example 567]	0.14 µM	80%	
CO[C@@H]1CN(c2ccc3c(=O)c(C(=O)N[C@@H](C4CC4)C(F)(F)F)cn(-c4c(F)cc(F)cc4F)c3n2)C[C@H]1O (single isomer, unassigned) [Example 583]	0.019 µM	100%	
CO[C@@H]1CN(c2ccc3c(=O)c(C(=O)N[C@@H](C4CC4)C(F)(F)F)cn(-c4c(F)cc(F)cc4F)c3n2)C[C@H]1O (single isomer, unassigned) [Example 584, N-[(1 S)-1-Cyclopropyl-2,2,2-trifluoroethyl]-7-[trans-3-hydroxy-4-methoxypyrrolidin-1-yl]-4-oxo-1-(2,4,6-trifluorophenyl)-1,4-dihydro-1,8-naphthyridine-3-carboxamide]	0.016 µM		98.0%
O=C(N[C@@H](C1CC1)C(F)(F)F)c1cn(-c2c(F)cc(F)cc2F)c2nc(N3CC(O)C4(CC4)C3)ccc2c1=O (single isomer, unassigned) [Example 601]	0.073 µM	100%	
O=C(N[C@@H](C1CC1)C(F)(F)F)c1cn(-c2c(F)cc(F)cc2F)c2nc(N3CC(O)C4(CC4)C3)ccc2c1=O (single isomer, unassigned) [Example 602]	0.023 µM		91.5%
O=C(NC(CC(F)(F)F)C(F)(F)F)c1cn(-c2c(F)cc(F)cc2F)c2nc(N3C[C@@H](O)CC3=O)ccc2c1=O (single isomer, unassigned) [Example 608]	0.022 µM		100.0%
O=C(N[C@@H](C1CC1)C(F)(F)F)c1cn(-c2c(F)cc(F)cc2F)c2nc(N3CC[C@@H](O)[C@H](O)C3)ccc2c1=O (single isomer, unassigned) [Example 616]	0.037 µM	90.5%	
